Patent publication US10125125B2, “N-(heteroaryl)-sulfonamide derivatives useful as S100-inhibitors” (Active Biotech AB, priority 2013, dated 2018)

Target: biotinylated human S100A9 : rhRAGE-Fc interaction (Homo sapiens (Human), UniProt P06702)
Assay: AlphaScreen inhibition assay, Biot-hS100A9:hRAGE-Fc (S100A9-RAGE inhibition assay)
Format: binding
Text: FIG. 1 is a schematic representation of an assay of the inhibition of the interaction between biotinylated human S100A9 and human RAGE-Fc using a small molecule S100A9 binder.
Inhibition Assay, Biot-hS100A9:hRAGE-Fc
The AlphaScreen (Amplified Luminescent Proximity Homogeneous Assay) contains two types of beads, Alpha Donor beads and Acceptor beads (PerkinElmer). Upon laser excitation at 680 nm a photosensitizer in the Donor bead converts ambient oxygen to a more excited singlet state. The singlet oxygen molecule diffuses (maximum 200 nm) to react with a thioxene derivative in the Acceptor bead and generates a chemiluminescence reaction. Fluorophores in the Acceptor bead subsequently emit light at 520-620 nm which can be detected in the EnVision® Multilabel plate Reader (PerkinElmer). The beads are light sensitive and all work with the beads is performed under subdued light conditions or using green filters on light sources (Roscolux Chroma Green #389, Rosco).
In the AlphaScreen Inhibition Assay described here, protein A (Staphylococcus aureus) conjugated Acceptor beads are used together with streptavidin coated Donor beads (Perkin Elmer 6760617M). The Acceptor beads are pre-incubated with Fc-tagged recombinant human RAGE (rhRAGE-Fc) allowing binding of the rhRAGE-Fc to protein A on the beads. Biotinylated human S100A9 (biot-hS100A9) is pre-incubated with the low molecular test compounds. The pre-mixes are then added to the wells of a micro-plate and incubated allowing interaction between biot-hS100A9 and rhRAGE-Fc. Subsequent addition of streptavidin coated Donor beads causes binding of the streptavidin to the biotinylated hS100A9. After an additional incubation the signal is measured.
Without inhibitory compounds, the interaction of biot-hS100A9 to rhRAGE-Fc will bring the Acceptor and Donor beads in close proximity thus generating a high signal. With an inhibitor present the complex will not form resulting in a decreased signal.
Chemicals and reagents. • AlphaScreen® General IgG (Protein A) Detection Kit, (PerkinElmer 6760617M) • HBS-P buffer (GE Healthcare, BR-1003-68) • HBS-N buffer (GE Healthcare, BR-1003-69) • CaCl2 in HBS-P • ZnCl2 in Milli-Q water • DMSO • Biotinylated hS100A9, (biotinylated via cystein by EZ-link Iodoacetyl-PEG2-Biotin reagent (Pierce no. 21334), in HBS-N • rhRAGE-Fc (R&D Systems, 1145-RG-50), in HBS-P
The AlphaScreen assay method is used for screening of the inhibitory effect of different compound samples at fixed concentrations or for IC50 determination by varying the compound concentrations. Samples of test compounds and references are prepared from solutions in DMSO. Relevant reference inhibitors and DMSO are used as controls for defined inhibition and non-inhibition, respectively in the assay. The percent inhibition in assay for test compounds and references are calculated by comparing their obtained assay signals with the signal values for the control with only DMSO (no compound).
Assay concentration of biotinylated hS100A9 and rhRAGE-Fc are batch dependent, and are determined and defined by separate cross-titration experiments using this AlphaScreen inhibition method to verify the optimal setup regarding signal strength and achievement of a defined inhibition with relevant reference compounds. The Final assay concentrations of Acceptor and Donor beads are 20 μg/mL.
Experimental Set Up for Screening, Preparation of Solutions and Beads.
Assay buffer is prepared by adding CaCl2 and ZnCl2 to HBS-P and is used freshly prepared in the experiment.
Biotin-hS100A9 solution for the experiment is prepared by dilution of appropriate amount of stock solution biot-hS100A9 in assay buffer (with CaCl2 and ZnCl2) and incubation in room temperature for 30 minutes.
rhRAGE-Fc solution for the experiment is prepared by dilution appropriate amount of rhRAGE-Fc stock in assay buffer.
Protein A Acceptor beads are diluted in assay buffer and are added to an equal volume of the prepared diluted rhRAGE-Fc solution.

Sequence of biotinylated human S100A9 : rhRAGE-Fc interaction (P06702 whole entry): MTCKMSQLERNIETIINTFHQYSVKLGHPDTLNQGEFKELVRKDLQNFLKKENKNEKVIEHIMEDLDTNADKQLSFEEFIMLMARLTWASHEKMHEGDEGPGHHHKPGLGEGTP

Row | IC50 [nM] | SMILES
1 | 2800 | COc1ncc(S(=O)(=O)Nc2cncc(Cl)c2O)cc1Br [Example 59, 5-bromo-N-(5-chloro-4-hydroxypyridin-3-yl)-6-methoxypyridine-3-sulfonamide]
2 | 2100 | O=S(=O)(Nc1cncc(Cl)c1O)c1cc(Cl)cc(Cl)c1 [Example 89, 3,5-dichloro-N-(5-chloro-4-hydroxypyridin-3-yl)benzene-1-sulfonamide]
3 | < 1000 | O=S(=O)(Cc1cc(Cl)cc(Cl)c1)Nc1nnc(S(=O)(=O)CCCO)cc1O [Example 139, 1-(3,5-dichlorophenyl)-N-[4-hydroxy-6-(3-hydroxypropanesulfonyl)pyridazin-3-yl]methanesulfonamide]
4 | 390 | N#Cc1nc(NS(=O)(=O)Cc2cc(Cl)cc(Cl)c2)c(O)cc1Cl [Example 130, N-(5-chloro-6-cyano-3-hydroxypyridin-2-yl)-1-(3,5-dichlorophenyl)methane-sulfonamide]
5 | 1800 | COc1ncc(S(=O)(=O)Nc2cnc(C(F)(F)F)cc2O)cc1Br [Example 137, 5-bromo-N-[4-hydroxy-6-(trifluoromethyl)pyridin-3-yl]-6-methoxypyridine-3-sulfonamide]
6 | > 1000 | O=S(=O)(Nc1ncc(Cl)cc1O)c1ccc(C(F)(F)F)nc1 [Example 41, N-(5-chloro-3-hydroxypyridin-2-yl)-6-(trifluoromethyl)pyridine-3-sulfonamide]
7 | 3000 | O=S(=O)(Nc1ncc(Cl)cc1O)c1cncc(Br)c1 [Example 40, 5-bromo-N-(5-chloro-3-hydroxypyridin-2-yl)pyridine-3-sulfonamide]
8 | < 1000 | O=S(=O)(Nc1nc(Cl)ncc1O)c1ccc(Cl)c(Cl)c1 [Example 144, 3,4-dichloro-N-(2-chloro-5-hydroxypyrimidin-4-yl)benzene-1-sulfonamide]
9 | 2600 | O=S(=O)(Nc1cc(Cl)cnc1O)c1cc(Cl)sc1Cl [Example 74, 2,5-dichloro-N-(5-chloro-2-hydroxypyridin-3-yl)thiophene-3-sulfonamide]
10 | > 1000 | O=S(=O)(Nc1nnc(C(F)(F)F)cc1O)c1cc(F)cc(Cl)c1 [Example 163, 3-chloro-5-fluoro-N-[4-hydroxy-6-(trifluoromethyl)pyridazin-3-yl]benzene-1-sulfonamide]
11 | > 1000 | CC(C)c1cnc(NS(=O)(=O)c2cnc(Cl)c(Br)c2)c(O)c1 [Example 11, 5-bromo-6-chloro-N-[3-hydroxy-5-(propan-2-yl)pyridin-2-yl]pyridine-3-sulfonamide]
12 | 2000 | O=S(=O)(Nc1nnc(Cl)cc1O)c1cc(Cl)sc1Cl [Example 113, 2,5-dichloro-N-(6-chloro-4-hydroxypyridazin-3-yl)thiophene-3-sulfonamide]
13 | 140 | CS(=O)(=O)c1cnc(NS(=O)(=O)Cc2cc(Cl)cc(Cl)c2)c(O)c1 [Example 32, 1-(3,5-dichlorophenyl)-N-(3-hydroxy-5-methanesulfonylpyridin-2-yl)methane-sulfonamide]
14 | 4400 | COc1ncc(S(=O)(=O)Nc2cnccc2O)cc1Br [Example 62, 5-bromo-N-(4-hydroxypyridin-3-yl)-6-methoxypyridine-3-sulfonamide]
15 | 1800 | CS(=O)(=O)c1cnc(NS(=O)(=O)c2cc(Cl)cc(Cl)c2)c(O)n1 [Example 159, 3,5-dichloro-N-(3-hydroxy-5-methanesulfonylpyrazin-2-yl)benzene-1-sulfonamide]
16 | 300 | O=S(=O)(Cc1cc(F)cc(Cl)c1)Nc1nnc(Cl)cc1O [Example 94, N-(6-chloro-4-hydroxypyridazin-3-yl)-1-(3-chloro-5-fluorophenyl)methane-sulfonamide]

Row | IC50 [nM] | SMILES
17 | 980 | N#Cc1ccc(Cl)c(CS(=O)(=O)Nc2nnc(Cl)cc2O)c1 [Example 85, N-(6-chloro-4-hydroxypyridazin-3-yl)-1-(2-chloro-5-cyanophenyl)methane-sulfonamide]
18 | < 1000 | COc1ncc(CS(=O)(=O)Nc2ccc(Cl)nc2O)cc1Cl [Example 182, N-(6-chloro-2-hydroxypyridin-3-yl)-1-(5-chloro-6-methoxypyridin-3-yl)methane-sulfonamide]
19 | 700 | O=S(=O)(Nc1nnc(Cl)cc1O)c1cc(Cl)cc(Cl)c1 [Example 95, 3,5-dichloro-N-(6-chloro-4-hydroxypyridazin-3-yl)benzene-1-sulfonamide]
20 | < 1000 | O=S(=O)(Cc1cc(Cl)cc(Cl)c1)Nc1ccncc1O [Example 167, 1-(3,5-dichlorophenyl)-N-(3-hydroxypyridin-4-yl)methanesulfonamide]
21 | 100 | O=S(=O)(Cc1cc(Cl)cc(Cl)c1)Nc1nnc(Cl)cc1O [Example 36, N-(6-chloro-4-hydroxypyridazin-3-yl)-1-(3,5-dichlorophenyl)methanesulfonamide]
22 | < 1000 | O=S(=O)(Cc1ccc(F)c(F)c1)Nc1nnc(Cl)cc1O [Example 76, N-(6-chloro-4-hydroxypyridazin-3-yl)-1-(3,4-difluorophenyl)methanesulfonamide]
23 | 180 | O=S(=O)(Cc1cc(Cl)cc(Cl)c1)Nc1nc(Cl)ncc1O [Example 143, N-(2-chloro-5-hydroxypyrimidin-4-yl)-1-(3,5-dichlorophenyl)methanesulfonamide]
24 | 420 | CS(=O)(=O)c1cnc(NS(=O)(=O)Cc2cc(Cl)cc(Cl)c2)c(O)n1 [Example 112, 1-(3,5-dichlorophenyl)-N-(3-hydroxy-5-methanesulfonylpyrazin-2-yl)methane-sulfonamide]
25 | < 1000 | CCS(=O)(=O)c1ccc(NS(=O)(=O)Cc2cc(Cl)cc(Cl)c2)c(O)n1 [Example 188, 1-(3,5-dichlorophenyl)-N-[6-(ethanesulfonyl)-2-hydroxypyridin-3-yl]methane-sulfonamide]
26 | < 1000 | O=S(=O)(Nc1ncc(Br)nc1O)C(c1cc(Cl)cc(Cl)c1)C(F)(F)F (racemic) [Example 141, (+/−)-N-(5-bromo-3-hydroxypyrazin-2-yl)-1-(3,5-dichlorophenyl)-2,2,2-trifluoroethane-1-sulfonamide]
27 | 4600 | O=S(=O)(Nc1cnccc1O)c1cc(Cl)sc1Cl [Example 63, 2,5-dichloro-N-(4-hydroxypyridin-3-yl)thiophene-3-sulfonamide]
28 | 3800 | O=S(=O)(Cc1cc(Cl)cc(Cl)c1)Nc1cncc(Br)c1O [Example 97, N-(5-bromo-4-hydroxypyridin-3-yl)-1-(3,5-dichlorophenyl)methanesulfonamide]
29 | 120 | O=S(=O)(Cc1cc(Cl)cc(Cl)c1)Nc1ncc(S(=O)(=O)C2CCCC2)cc1O [Example 131, N-[5-(cyclopentanesulfonyl)-3-hydroxypyridin-2-yl]-1-(3,5-dichlorophenyl)methane-sulfonamide]
30 | 120 | N#Cc1cnc(NS(=O)(=O)Cc2cc(Cl)cc(Cl)c2)c(O)c1 [Example 189, N-(5-cyano-3-hydroxypyridin-2-yl)-1-(3,5-dichlorophenyl)methanesulfonamide]
31 | > 1000 | COc1ccc(S(=O)(=O)Nc2cncc(Cl)c2O)cc1Cl [Example 122, 3-chloro-N-(5-chloro-4-hydroxypyridin-3-yl)-4-methoxybenzene-1-sulfonamide]
32 | 800 | O=S(=O)(Cc1ccc(Cl)c(Cl)c1)Nc1cnc(Cl)cc1O [Example 70, N-(6-chloro-4-hydroxypyridin-3-yl)-1-(3,4-dichlorophenyl)methanesulfonamide]
